Source: US20250188162A1, “INHIBITOR OF INTERLEUKIN-1 RECEPTOR TYPE 1 FOR USE IN THE TREATMENT OF CANCER” (Buzzard Pharmaceuticals AB, priority 2022, published 2025)

Legend:
Kras-mutant cancer cells [1] = experiment: malignant pleural effusion model of κB.luc mice with pleural LLC cells treated with Cu-CPT22; assay type: in vivo; conditions: daily intraperitoneal 20 mg/kg, 14 days post-pleural LLC cells
NF-κB = NF-κB reporter bioluminescence of NGL RAW264.7 macrophages pre-treated with Cu-CPT22 and exposed to VCAN; assay type: cell-based, murine; conditions: 1 nM recombinant VCAN, bioluminescence at 24 hours
RAW264.7 macrophages = experiment: MTT reduction of RAW264.7 macrophages treated with Cu-CPT22; assay type: cell-based, murine; conditions: MTT reduction at 72 hours post-LPS/VCAN
[2] = 133 mg/h for 72 hours; cited from earlier work
KrasMUT tumors = experiment: subcutaneous tumor growth in mice with established tumors treated with Isunakinra; assay type: in vivo; conditions: daily intraperitoneal 20 or 50 mg/Kg from 10-17 days post tumor cells; FULA1, LLC, MC38 (Kras-mutant) vs B16F10, PANO2 (WT)
Experimental: (§1) FIG. 6. Pharmacologic abolition of non-oncogene addiction of Kras-mutant tumors to IL-1β. […] (A) FVB (n=10) and C57BL/6 (n=45) mice received subcutaneous injections of 5×10^6 FULA1 (FVB mice) or LLC, MC38, B16F10, or PANO2 (C57BL/6 mice) cells that carry G12C, G13R, Q61R, or wild-type (WT) Kras alleles. Mice were allowed 10-17 days for tumor take, and were treated with daily intraperitoneal phosphate buffered saline (PBS) or 20 mg/Kg (LLC cells) or 50 mg/Kg (all other cells) Isunakinra until control tumor volume reached 1 cm3 (PANO2 cells) or 2 cm3 (all other cell lines). Shown are therapy (Tx) start, mouse numbers (n), tumor volume as mean (circles) and SD (bars), two-way ANOVA probability (P) for treatment effects, and average Isunakinra effect at the last time-points (%). ** and ***: P<0.01 and P<0.001, respectively, Bonferroni post-tests. (B-D) C57BL/6 mice (n=48) received intrapleural 2×10^5 LLC cells stably expressing a κB.LUC reporter (NGL), were allowed five days for tumor take, and received daily intraperitoneal PBS or 20 mg/Kg Isunakinra. Mice were sacrificed when morbid (n=17/treatment) or at day 14 post-LLC cells (n=7/treatment), after 1 mg intravenous D-luciferin and bioluminescence imaging. […]

Kras-mutant cancer cells [3] = experiment: intrapleural LLC κB.LUC reporter malignant pleural effusion model treated with Isunakinra; assay type: in vivo, mice; conditions: daily intraperitoneal 20 mg/Kg from day 5 post-intrapleural LLC cells
Experimental: as §1

Question: Which “VCAN-induced myeloid NF-κB activation and MPE” value (Kras-mutant cancer cells [1]) does the source give for CCCCCCOC(=O)c1cc(O)c(=O)c2c(O)c(O)c(OC)cc2c1 [Cu-CPT22, 3,4,6-Trihydroxy-2-methoxy-5-oxo-5H-benzocycloheptene-8-carboxylic acid hexyl ester] here?
Answer: Its value is “blocks versican (VCAN)-induced myeloid NF-κB activation and MPE of Kras-mutant cancer cells in vivo”.

Question: What about the “tumor growth in vivo” value (Kras-mutant cancer cells [1]) of the same molecule?
Answer: Its value is “blocked tumor growth in vivo at clinically relevant concentrations”.

Question: And the “concentration range inhibiting VCAN induced NF-κB activation” value (NF-κB)?
Answer: Its value is “low micromolar range”.

Question: What about the “concentration range inhibiting cellular survival” value (RAW264.7 macrophages) of the same molecule?
Answer: Its value is “low micromolar range”.

Question: Which “clinical or laboratory values” [2] does the source give for “IL-1RA: IL-1 receptor antagonist protein, natural antagonist of IL-1α and IL-1β” here?
Answer: Its value is “no change in clinical or laboratory values”.

B1: Isunakinra: protein chimera of IL-1β and IL-1 receptor antagonists comprising P05 (SEQ ID NO: 5); binds IL1R1 (protein)
chain: APVRSLNCRIWDVNQKTFYLRNNQLVAGYLQGPNVNLEEKFSMSFVQGEESNDKIPVALGLKEKNLYLSCVLKDDKPTLQLESVDPKNYPKKKMEKRFVFNKIEINNKLEFESAQFPNWFLCTAMEADQPVSLTNMPDEGVMVTKFYMQFVSS
modifications: P05
Question: Which “s.c. tumor growth (tumor volume)” value (KrasMUT tumors) does the source give for B1 here?
Answer: Its value is “specifically inhibited s.c. growth of KrasMUT tumors”.

Question: What about the “NF-κB activation in KrasMUT cancer cells in vivo (chest bioluminescence)” value (Kras-mutant cancer cells [3]) of the same molecule?
Answer: The value was “limited nuclear factor (NF)-κB activation in KrasMUT cancer cells in vivo”.

Question: And the “malignant pleural effusions (MPE)” value (Kras-mutant cancer cells [3])?
Answer: The value was “limits nuclear factor (NF)-κB activation and malignant pleural effusions (MPE) from Kras-mutant cancer cells”.
